Test results published in ChEMBL document CHEMBL4725429, “Discovery and Evaluation of Pyrazolo[3,4-d]pyridazinone as a Potent and Orally Active Irreversible BTK Inhibitor” (ACS Med Chem Lett, 2020).

Columns and labels:
[1] = target: Tyrosine-protein kinase BTK (Homo sapiens, UniProt Q06187); assay: Inhibition of recombinant human His-tagged full length BTK expressed in baculovirus expression system using TK1 as substrate incubated for 60 mins by HTRF assay
[2] = Cmax in BALB/c mouse 2 mg/kg, po measured upto 24 hrs by LC-MS/MS analysis; assay type: ADME, organism-based; design: route oral, dose 2 mg/kg, time <=24; conditions: in vivo
[3] = AUC in BALB/c mouse 2 mg/kg, po measured upto 24 hrs by LC-MS/MS analysis; assay type: ADME, organism-based; design: route oral, dose 2 mg/kg, time <=24; conditions: in vivo
[4] = Protein binding in human plasma at 2 uM incubated for 4 hrs by LC-MS/MS analysis; assay type: ADME, cell-free; conditions: read-out: PPB (converted)
[5] = Protein binding in rat plasma at 2 uM incubated for 4 hrs by LC-MS/MS analysis; assay type: ADME, cell-free; conditions: read-out: PPB (converted)
[6] = Protein binding in mouse plasma at 2 uM incubated for 4 hrs by LC-MS/MS analysis; assay type: ADME, cell-free; conditions: read-out: PPB (converted)
[7] = Half life in Sprague-Dawley rat at 2 mg/kg, iv measured upto 24 hrs by LC-MS/MS analysis; assay type: ADME, organism-based; conditions: in vivo
[8] = Cmax in Sprague-Dawley rat at 2 mg/kg, iv measured upto 24 hrs by LC-MS/MS analysis; assay type: ADME, organism-based; design: route intravenous, time <=24; conditions: in vivo
[9] = AUC (0 to last) in Sprague-Dawley rat at 2 mg/kg, iv measured upto 24 hrs by LC-MS/MS analysis; assay type: ADME, organism-based; design: route intravenous, dose 2 mg/kg, time <=24; conditions: in vivo
[10] = AUC (0 to last) in Sprague-Dawley rat at 10 mg/kg, po measured upto 24 hrs by LC-MS/MS analysis; assay type: ADME, organism-based; design: route oral, dose 10 mg/kg, time <=24; conditions: in vivo
[11] = Oral bioavailability in Sprague-Dawley rat at 10 mg/kg measured upto 24 hrs by LC-MS/MS analysis; assay type: ADME, organism-based; conditions: in vivo
[12] = Half life in BALB/c mouse at 1 mg/kg, iv measured upto 24 hrs by LC-MS/MS analysis; assay type: ADME, organism-based; conditions: in vivo
[13] = AUC (0 to last) in BALB/c mouse at 1 mg/kg, iv measured upto 24 hrs by LC-MS/MS analysis; assay type: ADME, organism-based; design: route intravenous, dose 1 mg/kg, time <=24; conditions: in vivo
[14] = Oral bioavailability in BALB/c mouse at 2 mg/kg measured upto 24 hrs by LC-MS/MS analysis; assay type: ADME, organism-based; conditions: in vivo
Cytochrome P450 2D6 = Cytochrome P450 2D6 (Homo sapiens, UniProt P10635); assay: Inhibition of human liver microsome CYP2D6 using dextromethorphan as substrate preincubated for 10 mins followed by substrate and NADPH addition and measured after 10 mins by LC-MS/MS analysis
Cytochrome P450 2D6, sequence (P10635 whole entry): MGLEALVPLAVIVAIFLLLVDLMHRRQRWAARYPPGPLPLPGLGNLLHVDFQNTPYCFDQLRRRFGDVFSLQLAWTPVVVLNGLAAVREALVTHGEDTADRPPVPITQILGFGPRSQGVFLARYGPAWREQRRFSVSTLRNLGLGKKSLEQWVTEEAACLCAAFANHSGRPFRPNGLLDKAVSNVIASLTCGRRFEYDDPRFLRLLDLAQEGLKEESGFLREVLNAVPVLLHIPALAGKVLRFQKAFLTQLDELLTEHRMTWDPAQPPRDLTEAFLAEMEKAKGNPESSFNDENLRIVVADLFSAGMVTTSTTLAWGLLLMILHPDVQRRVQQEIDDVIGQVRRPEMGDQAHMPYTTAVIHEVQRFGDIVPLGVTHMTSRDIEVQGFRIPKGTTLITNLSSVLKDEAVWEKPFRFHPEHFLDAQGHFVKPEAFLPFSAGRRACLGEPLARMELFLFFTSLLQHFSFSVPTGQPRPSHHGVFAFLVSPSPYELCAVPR

Cytochrome P450 2C19 = Cytochrome P450 2C19 (Homo sapiens, UniProt P33261); assay: Inhibition of human liver microsome CYP2C19 using S-mephenytoin as substrate preincubated for 10 mins followed by substrate and NADPH addition and measured after 10 mins by LC-MS/MS analysis
Cytochrome P450 2C19, sequence (P33261 whole entry): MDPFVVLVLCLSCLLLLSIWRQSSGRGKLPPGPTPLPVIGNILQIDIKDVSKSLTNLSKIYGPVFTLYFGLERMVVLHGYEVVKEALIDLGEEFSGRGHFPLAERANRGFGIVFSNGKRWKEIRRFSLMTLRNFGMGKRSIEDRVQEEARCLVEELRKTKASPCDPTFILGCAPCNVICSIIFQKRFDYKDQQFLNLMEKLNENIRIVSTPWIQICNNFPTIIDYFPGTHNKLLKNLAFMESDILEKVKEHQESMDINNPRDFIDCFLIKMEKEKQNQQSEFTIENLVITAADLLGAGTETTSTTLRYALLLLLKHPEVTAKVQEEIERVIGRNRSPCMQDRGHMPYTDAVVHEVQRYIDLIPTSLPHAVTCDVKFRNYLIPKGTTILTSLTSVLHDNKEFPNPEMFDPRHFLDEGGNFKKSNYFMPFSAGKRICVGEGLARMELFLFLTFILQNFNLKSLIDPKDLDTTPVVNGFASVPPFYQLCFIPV

Cytochrome P450 1A2 = target: T1, Cytochrome P450 1A2 (Homo sapiens, UniProt P05177); assay: Inhibition of human liver microsome CYP1A2 using phenacetin as substrate preincubated for 10 mins followed by substrate and NADPH addition and measured after 10 mins by LC-MS/MS analysis
T1 sequence (P05177 whole entry): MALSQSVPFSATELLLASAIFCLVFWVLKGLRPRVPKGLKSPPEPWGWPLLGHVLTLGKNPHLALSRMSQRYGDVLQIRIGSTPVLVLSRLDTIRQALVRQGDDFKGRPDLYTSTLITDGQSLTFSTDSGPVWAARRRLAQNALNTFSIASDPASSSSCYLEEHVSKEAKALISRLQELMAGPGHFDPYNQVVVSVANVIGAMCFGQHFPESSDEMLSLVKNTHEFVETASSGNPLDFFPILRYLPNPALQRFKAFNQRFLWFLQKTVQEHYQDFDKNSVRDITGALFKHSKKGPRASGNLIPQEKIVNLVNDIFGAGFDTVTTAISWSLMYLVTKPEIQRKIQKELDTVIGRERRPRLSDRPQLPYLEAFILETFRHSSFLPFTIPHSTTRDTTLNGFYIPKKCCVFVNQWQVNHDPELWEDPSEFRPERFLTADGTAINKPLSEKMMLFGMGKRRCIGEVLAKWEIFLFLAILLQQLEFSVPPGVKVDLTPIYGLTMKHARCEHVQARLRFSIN

Cytochrome P450 2C9 = Cytochrome P450 2C9 (Homo sapiens, UniProt P11712); assay: Inhibition of human liver microsome CYP2C9 using diclofenac as substrate preincubated for 10 mins followed by substrate and NADPH addition and measured after 10 mins by LC-MS/MS analysis
Cytochrome P450 2C9, sequence (P11712 whole entry): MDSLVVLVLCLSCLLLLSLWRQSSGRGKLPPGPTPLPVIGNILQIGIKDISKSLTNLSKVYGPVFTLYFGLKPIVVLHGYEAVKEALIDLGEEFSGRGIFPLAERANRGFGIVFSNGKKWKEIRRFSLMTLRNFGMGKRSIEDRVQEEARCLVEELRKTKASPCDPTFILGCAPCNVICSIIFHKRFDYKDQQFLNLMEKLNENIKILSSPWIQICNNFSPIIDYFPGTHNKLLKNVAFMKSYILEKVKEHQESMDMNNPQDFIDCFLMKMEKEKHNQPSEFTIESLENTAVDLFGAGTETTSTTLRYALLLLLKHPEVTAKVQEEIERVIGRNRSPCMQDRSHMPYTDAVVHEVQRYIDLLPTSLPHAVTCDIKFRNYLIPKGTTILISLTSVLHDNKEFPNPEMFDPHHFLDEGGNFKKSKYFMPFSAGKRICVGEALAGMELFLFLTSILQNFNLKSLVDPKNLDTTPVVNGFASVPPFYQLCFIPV

Cytochrome P450 3A4 = Cytochrome P450 3A4 (Homo sapiens, UniProt P08684); assay: Inhibition of human liver microsome CYP3A4 using midazolam as substrate preincubated for 10 mins followed by substrate and NADPH addition and measured after 10 mins by LC-MS/MS analysis
Cytochrome P450 3A4, sequence (P08684 whole entry): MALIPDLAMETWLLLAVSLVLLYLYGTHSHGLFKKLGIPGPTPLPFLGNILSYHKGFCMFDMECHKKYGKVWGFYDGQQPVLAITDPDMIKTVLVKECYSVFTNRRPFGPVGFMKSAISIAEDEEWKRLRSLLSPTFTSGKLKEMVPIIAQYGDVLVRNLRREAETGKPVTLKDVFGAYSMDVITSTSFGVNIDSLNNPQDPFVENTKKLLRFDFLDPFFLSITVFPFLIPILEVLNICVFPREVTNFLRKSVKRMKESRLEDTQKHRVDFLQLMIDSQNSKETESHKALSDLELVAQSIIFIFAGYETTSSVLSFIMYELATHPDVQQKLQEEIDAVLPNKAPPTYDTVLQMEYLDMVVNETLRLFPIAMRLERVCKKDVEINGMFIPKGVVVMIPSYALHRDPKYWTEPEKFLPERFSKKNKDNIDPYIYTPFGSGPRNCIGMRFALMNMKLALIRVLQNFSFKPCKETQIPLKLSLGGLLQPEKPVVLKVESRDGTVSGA

[15] = Clearance in Sprague-Dawley rat at 2 mg/kg, iv measured upto 24 hrs by LC-MS/MS analysis; conditions: in vivo
[16] = Volume of distribution at steady state in Sprague-Dawley rat at 2 mg/kg, iv measured upto 24 hrs by LC-MS/MS analysis; assay type: ADME, organism-based; conditions: in vivo, read-out: Vdss
[17] = Clearance in BALB/c mouse at 1 mg/kg, iv measured upto 24 hrs by LC-MS/MS analysis; conditions: in vivo
[18] = Volume of distribution at steady state in BALB/c mouse at 1 mg/kg, iv measured upto 24 hrs by LC-MS/MS analysis; assay type: ADME, organism-based; conditions: in vivo, read-out: Vdss
Mus musculus = assay: Antiarthritic activity in po dosed collagen-induced arthritis mouse model assessed as clinical score administered for 14 days and measured for 21 days after dosing; assay type: functional, organism-based; conditions: dose mg/kg 3-10, time 14.0 day
[19] = Toxicity in mouse assessed as drug tolerance at 3 and 10 mg/kg, po administered for 14 days and observed for 21 days; assay type: organism-based; conditions: in vivo, 336 h, dose 3-10 mg/kg, time 14 day
[20] = Toxicity in mouse assessed as body weight loss at 3 and 10 mg/kg, po administered for 14 days and observed for 21 days; assay type: organism-based; conditions: in vivo, 336 h, dose 3-10 mg/kg, time 14 day

Tyrosine-protein kinase BTK, sequence (Q06187 whole entry): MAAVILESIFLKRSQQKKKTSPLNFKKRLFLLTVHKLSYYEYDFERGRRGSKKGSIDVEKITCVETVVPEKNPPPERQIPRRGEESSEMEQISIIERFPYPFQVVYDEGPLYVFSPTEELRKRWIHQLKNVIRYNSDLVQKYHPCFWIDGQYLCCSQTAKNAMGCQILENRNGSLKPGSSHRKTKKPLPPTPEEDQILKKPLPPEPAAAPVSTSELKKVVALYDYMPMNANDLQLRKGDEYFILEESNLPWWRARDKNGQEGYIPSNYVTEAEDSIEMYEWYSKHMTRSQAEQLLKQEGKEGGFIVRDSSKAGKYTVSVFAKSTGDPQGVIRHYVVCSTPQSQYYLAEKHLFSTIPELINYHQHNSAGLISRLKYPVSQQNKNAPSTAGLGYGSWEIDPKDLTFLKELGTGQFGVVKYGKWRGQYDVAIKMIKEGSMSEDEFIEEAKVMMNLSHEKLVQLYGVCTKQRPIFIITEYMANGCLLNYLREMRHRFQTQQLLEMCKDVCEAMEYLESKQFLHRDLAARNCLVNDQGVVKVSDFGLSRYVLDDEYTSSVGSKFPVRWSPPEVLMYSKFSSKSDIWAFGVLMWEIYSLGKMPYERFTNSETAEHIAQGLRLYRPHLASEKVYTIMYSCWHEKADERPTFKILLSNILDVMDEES

C=CC(=O)N1CCCC(n2nc(-c3ccc(Oc4ccccc4)cc3)c3cc4c(N)noc4cc32)C1 (stereo not drawn)
IC50 [1]: 4.66 µM

C=CC(=O)N1CCC[C@@H](n2nc(-c3ccc(Oc4ccccc4)cc3)c3c(N)nn(CC(F)(F)F)c(=O)c32)C1
IC50 [1]: > 1 µM

C=CC(=O)N1CCC[C@@H](Nc2ncnc3[nH]c(=O)c(-c4ccc(Oc5ccccc5)cc4)cc23)C1
IC50 [1]: > 10 µM

C=CC(=O)N(C)CCn1nc(-c2ccc(Oc3ccccc3)cc2)c2c(N)n[nH]c(=O)c21
IC50 [1]: 0.0012 µM | Cmax [2]: 123 nM | AUC at 24 h [3]: 49.5 ng·h/mL

C=CC(=O)N1CCC[C@@H](Nc2ncnc3[nH]c4ccc(Oc5ccccc5)cc4c(=O)c23)C1
IC50 [1]: > 10 µM

CC#CC(=O)N1CCC[C@@H](n2nc(-c3ccc(Oc4ccccc4)cc3)c3c(N)n[nH]c(=O)c32)C1
IC50 [1]: 0.012 µM

C=CC(=O)N1CCC[C@@H](n2nc(-c3ccc(Oc4ccccc4)cc3)c3c(N)ncnc32)C1 [IBRUTINIB]
Cmax [2]: 55.3 nM | AUC at 24 h [3]: 21.4 ng·h/mL | fraction unbound at 4 h, 2 µM [4]: 0.031 | fraction unbound at 4 h, 2 µM [5]: 0.022 | fraction unbound at 4 h, 2 µM [6]: 0.038 | t1/2 ([7]; 2 mg/kg, 24 h): 19.2 min | Cmax ([8]; 24 h): 150 ng/mL | AUClast ([9]; 24 h): 643 ng·h/mL | AUC(0-t) at 24 h [10]: 318 ng·h/mL | bioavailability [11]: 10.3% | half-life [12]: 20.4 min | AUC(0-t) at 24 h [13]: 628 ng·h/mL | bioavailability [14]: 1.8%

CN(C)C/C=C/C(=O)N1CCC[C@@H](n2nc(-c3ccc(Oc4ccccc4)cc3)c3c(N)n[nH]c(=O)c32)C1
IC50 [1]: 0.0026 µM

C=CC(=O)N1CCC[C@@H](n2nc(-c3ccc(Oc4ccccc4)cc3)c3c(N)n[nH]c(=O)c32)C1
IC50 [1]: 0.0021 µM | Cmax [2]: 252 nM | AUC at 24 h [3]: 128 ng·h/mL | fraction unbound at 4 h, 2 µM [4]: 0.025 | fraction unbound at 4 h, 2 µM [5]: 0.003 | fraction unbound at 4 h, 2 µM [6]: 0.047 | IC50 (Cytochrome P450 2D6): > 100 µM | IC50 (Cytochrome P450 2C19): 43.9 µM | IC50 (Cytochrome P450 1A2): > 100 µM | IC50 (Cytochrome P450 2C9): 39.6 µM | IC50 (Cytochrome P450 3A4): 37.3 µM | half-life ([7]; Sprague-Dawley): 19.2 min | clearance [15]: 54.6 mL/min/kg | Vd [16]: 1.55 L/kg | Cmax ([8]; Sprague-Dawley, read-out: Cmax): 466 ng/mL | AUC(0-t) at 24 h ([9]; Sprague-Dawley): 604 ng·h/mL | AUC(0-t) at 24 h [10]: 642 ng·h/mL | bioavailability [11]: 23.7% | half-life [12]: 25.2 min | clearance [17]: 31.3 mL/min/kg | Vd [18]: 0.82 L/kg | AUC(0-t) at 24 h [13]: 576 ng·h/mL | bioavailability [14]: 11.2% | Activity (Mus musculus): Dose-dependent effect | Activity [19]: Non-Toxic | Activity [20]: Non-Toxic

C=CS(=O)(=O)N1CCC[C@@H](n2nc(-c3ccc(Oc4ccccc4)cc3)c3c(N)n[nH]c(=O)c32)C1
IC50 [1]: 0.0042 µM

C=CC(=O)N1CCCCC(n2nc(-c3ccc(Oc4ccccc4)cc3)c3c(N)n[nH]c(=O)c32)C1 (stereo not drawn)
IC50 [1]: 0.0067 µM

C=CC(=O)N1CCC[C@@H](n2nc(-c3ccc(Oc4ccccc4)cc3)c3c(N)noc(=O)c32)C1
IC50 [1]: > 1 µM

C=CC(=O)N1CC(n2nc(-c3ccc(Oc4ccccc4)cc3)c3c(N)n[nH]c(=O)c32)C1
IC50 [1]: 0.0098 µM

C=CC(=O)N1CC2(CC(n3nc(-c4ccc(Oc5ccccc5)cc4)c4c(N)n[nH]c(=O)c43)C2)C1
IC50 [1]: 0.046 µM

C=CC(=O)N1CCC[C@@H](Nc2ncnc(N)c2-n2ncc3cc(Oc4ccccc4)ccc32)C1
IC50 [1]: 1.67 µM

N#C/C(=C\C1CC1)C(=O)N1CCC[C@@H](n2nc(-c3ccc(Oc4ccccc4)cc3)c3c(N)n[nH]c(=O)c32)C1
IC50 [1]: 0.022 µM

C=CC(=O)NC1CCC[C@@H](n2nc(-c3ccc(Oc4ccccc4)cc3)c3c(N)n[nH]c(=O)c32)C1 (stereo partly drawn)
IC50 [1]: 0.01 µM

C=CC(=O)N[C@H]1CC[C@@H](n2nc(-c3ccc(Oc4ccccc4)cc3)c3c(N)n[nH]c(=O)c32)CC1
IC50 [1]: 0.0016 µM | Cmax [2]: 290 nM | AUC at 24 h [3]: 161 ng·h/mL

C=CC(=O)N1CC[C@@H](n2nc(-c3ccc(Oc4ccccc4)cc3)c3c(N)n[nH]c(=O)c32)C1
IC50 [1]: 0.0014 µM | Cmax [2]: 137 nM | AUC at 24 h [3]: 68 ng·h/mL

C=CC(=O)N1CCC[C@@H](n2nc(-c3ccc(Oc4ccccc4)cc3)c3c(N)nn(CC)c(=O)c32)C1
IC50 [1]: > 1 µM

Nc1n[nH]c(=O)c2c1c(-c1ccc(Oc3ccccc3)cc1)nn2[C@@H]1CCCN(C(=O)/C=C/CN2CCOCC2)C1
IC50 [1]: 0.013 µM

C=CC(=O)N1CCCC(n2nc(-c3ccc(Oc4ccccc4)cc3)c3cc4c(N)ncnc4cc32)C1 (stereo not drawn)
IC50 [1]: 1.24 µM

CN(C)C/C=C/C(=O)N(C)CCn1nc(-c2ccc(Oc3ccccc3)cc2)c2c(N)n[nH]c(=O)c21
IC50 [1]: 0.035 µM

C=CC(=O)N1CCC[C@@H](n2nc(-c3ccc(Oc4ccccc4)cc3)c3c(N)nn(C)c(=O)c32)C1
IC50 [1]: 0.16 µM

C=CC(=O)N1CCC[C@@H](Nc2ncnc(N)c2C(=O)c2ccc(Oc3ccccc3)cc2)C1
IC50 [1]: 0.921 µM
